We go through one molecule from patent US9351963B2, “Defensin-like molecules as novel antimicrobial agents” (UNIVERSITY OF MARYLAND, BALTIMORE, priority 2010, dated 2016).

The nature of assay [1]: Surface Plasmon Resonance binding to immobilized 3-Lipid II (BIAcore). The settings on record: defensin mimetics at 10 μM, immobilized 3-Lipid II, 25° C. As for the experimental part: Short-chain water-soluble Lipid II containing a lipid tail of three isoprene units was generated and purified essentially as described (Breukink, E., van Heusden, H. E., Vollmerhaus, P. J., Swiezewska, E., Brunner, L., Walker, S., Heck, A. J., and de Kruijff, B. (2003) J Biol Chem 278, 19898-19903). Typically, M. flavus vesicles (120 μmol lipid-Pi) were incubated together with 500 μmol UDP-GlcNAc, 500 μmol UDP-MurNAC-pentapeptide and 400 μmol farnesyl phosphate (3-P) in 100 mM Tris-HCl pH 8.0, 5 mM MgCl2. The incubation lasted two hours at room temperature for 3-P. The synthesis of 3-Lipid II was followed using RP-8 reversed phase TLC (Merck) developed in 75% methanol. For purification, the membranes were removed by centrifugation at 40,000×g and the supernatant was collected and loaded on a C18 HPLC column and eluted with a linear gradient from 50 mM ammonium bicarbonate to 100% methanol in 30 minutes. Farnesyl-Lipid II (3-Lipid II) eluted at approximately 60% methanol. Its identity was confirmed by mass spectroscopy.
Surface Plasmon Resonance binding experiments were carried out on a BIAcore T100 system (BIAcore Inc., Piscataway, N.Y.) at 25° C. The assay buffer was 10 mM HEPES, 150 mM NaCl, 0.05% surfactant P20, pH 7.4 (±3 mM EDTA) supplemented with 10% DMSO. […] For initial determination of binding, defensin mimetics were introduced into the flow-cells (30 μl/min) in the running buffer at 10 μM. Resonance signals were corrected for nonspecific binding by subtracting the background of the control flow-cell. After each analysis, the sensor chip surfaces were regenerated with 50 mM NaOH for 30 s at a flow rate 100 μl/min, and equilibrated with the buffer prior to next injection. For binding kinetics studies, binding isotherms were analyzed with manufacturer-supplied software for BIAcore T100.

The test system of assay [2] is Staphylococcus aureus ATCC 29213. Nature of the assay: 96-well turbidimetric antibacterial killing assay, S. aureus. It counts as cell-based. As to the method: (§1) The antibacterial activity of defensin mimetics against Staphylococcus aureus ATCC 29213 and Escherichia coli 25922 was carried out in a 96-well turbidimetric assay essentially as described (Ericksen, B., Wu, Z., Lu, W., and Lehrer, R. I. (2005) Antimicrob Agents Chemother 49, 269-275) with the following modifications: compounds were exposed for 30 min to […] prior to addition of […] in 10 mM phosphate buffer containing 5% DMSO. Bacterial growth was monitored for 12 hours and data were analyzed as described (Ericksen, et al). Determination of MICs was performed by Micromyx, LLC (Kalamazoo, Mich.) according to CLSI standards (CLSI. (2009) Methods for Dilution Antimicrobial Susceptibility Tests for Bacteria That Grow Aerobically; Approved Standard—Eighth Edition.)

Assay [3] relates to Escherichia coli ATCC 25922. Nature of the assay: 96-well turbidimetric antibacterial killing assay, E. coli. It counts as cell-based. To be noted: E. coli. As to the method: as §1
The inventors have previously reported on the antibacterial activity of HNP1 and all of its structurally uncompromised single alanine mutants against S. aureus (Wei, G., Pazgier, M., de Leeuw, E., Rajabi, M., Li, J., Zou, G., Jung, G., Yuan, W., Lu, W. Y., Lehrer, R. I., and Lu, W. J Biol Chem 285, 16275-16285). […] If these residues are indeed important for Lipid II binding, one would expect that replacement by alanine will not affect killing of Gram-negative bacteria. […] In particular, FIG. 12 depicts killing of E. coli by HNP-1 Lipid II single alanine mutants. Survival curves of E. coli ATCC 25922 exposed to HNP-1 or HNP-1 single alanine mutants at concentrations varying two-fold from […]. Bacteria were exposed to defensin peptides for 120 min. Each curve is the mean of two separate experiments (±S.D.). Points scored as zero survival could not be plotted.

A further assay concerns E. coli. Description: Broth microdilution MIC (CLSI, Micromyx), E. coli. The settings on record: Escherichia coli. It is filed as cell-based. As to the method: as §1
To confirm the antibacterial killing assays, Minimal Inhibitory Concentrations (MICs, μg/ml) were determined for lead compounds against clinically relevant bacterial strains (Table 3, FIG. 11). […] Experiments were carried out according to CLSI standards (CLSI. (2009) Methods for Dilution Antimicrobial Susceptibility Tests for Bacteria That Grow Aerobically; Approved Standard—Eighth Edition.) by Micromyx, LLC (Kalamazoo, Mich.). […] There was no significant difference for any compound when evaluated against clinically relevant strains (e.g. MRSA, VRE, PRSP).

A short description of assay [4]: NMR interaction with Lipid II. It is filed as binding. To be noted: 0.15 mM Lipid II + 0.15 mM compound, d6-DMSO, 25° C. As for the experimental part:
The NMR samples included 0.15 mM Lipid II, 0.15 mM BAS00127538 compound, or 0.15 mM Lipid II+0.15 mM BAS00127538 compound. All samples were dissolved in 90% double distilled H20+10% DMSO, incubated for 30 minutes, freeze-dried, and then dissolved in 300 uL of d6-DMSO. NMR experiments were carried out at 25° C. on an 800 MHz Bruker Avance NMR spectrometer (800.27 MHz for protons) equipped with a pulse-field gradient unit, four frequency channels, and a triple resonance TXI cryoprobe (Bruker Biospin, Billerica, Mass.). 1D proton experiments were collected to probe for chemical shift changes and 2D TOCSY (30, 60, and 90 msec spinlock times), 2D NOESY (150 and 300 msec mixing times), and natural abundance ^13C-HSQC experiments were collected to determine proton and carbon chemical shift assignments.
To confirm the binding of defensins mimetic BAS00127538 to Lipid II the inventors observed by SPR, their interaction was studied directly by NMR (FIG. 7). Specifically, the inventors used 1D proton NMR spectra to determine if any chemical shift changes occur when the compound was added to 3-Lipid II. […] This Figure depicts an analysis of 2D TOCSY spectra collected at 800 MHz of the aromatic region of compound BAS00127538 alone (black) overlaid with spectra of compound bound to Lipid II (red). […]

A further assay has as its system S. aureus ATCC 29213. Description: Murine peritoneal sepsis model. The settings on record: 5 mg/kg intraperitoneally, preliminary experiments (not shown). It counts as in vivo, C57BL/6J mice.

For `CN1/C(=C/C=C/c2cc(-c3ccccc3)cc(-c3ccccc3)[o+]2)C(C)(C)c2ccccc21` [BAS00127538, 2,4-diphenyl-6-[(1E)-3-[(2E)-1,3,3-trimethyl-2,3-dihydro-1H-indol-2-ylidene]prop-1-en-1-yl]-1$1^4-pyran-1-ylium], the “Binding to Lipid II as measured by SPR” value in assay [1] is on record as “most strongly bound”. Besides, the “Concentration at which compound was 100% bactericidal against S. aureus” value in assay [2] came to 0.244 µM. The “Concentration at which compound was 100% bactericidal against E. coli” value in assay [3] is 7.8 µM. For the same molecule, in the assay with E. coli, the MIC worked out at 4 µg/mL. For the same molecule, the “Interaction with Lipid II by NMR analysis” value in assay [4] is “found to interact”. Also, in the assay with S. aureus ATCC 29213, the “Clearing non-lethal doses of S. aureus 29213” value was “most efficacious”.
